Measured values: the NIST ThermoML archive (doi:10.1016/j.jct.2017.02.014)
± gives the expanded uncertainty stated by the source.

Legend:
[1] = refractive index (Na D-line) (dimensionless); settings: 298.15 K; 101.33 kPa; Liquid; Standard Abbe refractometry
[2] = refractive index (other wavelength) (dimensionless); settings: 100 kPa, Liquid, Wavelength=632.8 nm, minimum deviation angle method
[3] = refractive index (other wavelength) (dimensionless); xn = mol fraction of the nth substance listed; settings: 100 kPa, Liquid, Wavelength=632.8 nm, minimum deviation angle method, x2 = 0

CCCC[n+]1ccccc1.F[B-](F)(F)F [1-butylpyridinium tetrafluoroborate]
Settings	refractive index
[1]	1.4459 ± 0.0007

[2]
Settings	refractive index
281.73 K	1.4481 ± 0.0003
282.78 K	1.4478 ± 0.0003
284.14 K	1.4475 ± 0.0003
285.74 K	1.4471 ± 0.0003
286.94 K	1.4468 ± 0.0003
288.24 K	1.4464 ± 0.0003
289.38 K	1.4461 ± 0.0003
290.37 K	1.4458 ± 0.0003
292.15 K	1.4454 ± 0.0003
293.41 K	1.4451 ± 0.0003
295 K	1.4446 ± 0.0003
296.89 K	1.444 ± 0.0003

CCO [ethanol] + CCCC[n+]1ccccc1.F[B-](F)(F)F
[3]
Settings	refractive index
282.04 K	1.3645 ± 0.0002
283.11 K	1.364 ± 0.0002
284.04 K	1.3637 ± 0.0002
285.65 K	1.363 ± 0.0002
286.62 K	1.3626 ± 0.0002
288.17 K	1.362 ± 0.0002
289.33 K	1.3615 ± 0.0002
290.8 K	1.3609 ± 0.0002
291.84 K	1.3604 ± 0.0002
292.94 K	1.36 ± 0.0002
293.77 K	1.3596 ± 0.0002
295.49 K	1.3589 ± 0.0002
296.51 K	1.3585 ± 0.0002
297.44 K	1.3581 ± 0.0002
298.14 K	1.3578 ± 0.0002

CCO [ethanol]
Settings	refractive index
[1]	1.3596 ± 0.0007

[2]
Settings	refractive index
282.04 K	1.3645 ± 0.0002
283.11 K	1.364 ± 0.0002
284.04 K	1.3637 ± 0.0002
285.65 K	1.363 ± 0.0002
286.62 K	1.3626 ± 0.0002
288.17 K	1.362 ± 0.0002
289.33 K	1.3615 ± 0.0002
290.8 K	1.3609 ± 0.0002
291.84 K	1.3604 ± 0.0002
292.94 K	1.36 ± 0.0002
293.77 K	1.3596 ± 0.0002
295.49 K	1.3589 ± 0.0002
296.51 K	1.3585 ± 0.0002
297.44 K	1.3581 ± 0.0002
298.14 K	1.3578 ± 0.0002
